Measurements as given in PubChem BioAssay AID686941 (The Scripps Research Institute Molecular Screening Center, 2013).

Assays:
[1] = molecular target: Cytochrome P450 3A4 (Homo sapiens) (UniProt P08684); test: CYP3A4 and CYP3A5 inhibition, late-stage follow-up, counter-screen, biochemical, LC-MS/MS, purified recombinant enzymes (AID 686941); details: recombinant CYP3A4/CYP3A5, LC-MS/MS metabolite formation; CYP3A4
[2] = molecular target: Cytochrome P450 3A5 (Homo sapiens) (UniProt P20815); test: as above; details: recombinant CYP3A4/CYP3A5, LC-MS/MS metabolite formation, CYP3A5
Chain of Cytochrome P450 3A5 (Homo sapiens) (P20815 whole entry, looked up): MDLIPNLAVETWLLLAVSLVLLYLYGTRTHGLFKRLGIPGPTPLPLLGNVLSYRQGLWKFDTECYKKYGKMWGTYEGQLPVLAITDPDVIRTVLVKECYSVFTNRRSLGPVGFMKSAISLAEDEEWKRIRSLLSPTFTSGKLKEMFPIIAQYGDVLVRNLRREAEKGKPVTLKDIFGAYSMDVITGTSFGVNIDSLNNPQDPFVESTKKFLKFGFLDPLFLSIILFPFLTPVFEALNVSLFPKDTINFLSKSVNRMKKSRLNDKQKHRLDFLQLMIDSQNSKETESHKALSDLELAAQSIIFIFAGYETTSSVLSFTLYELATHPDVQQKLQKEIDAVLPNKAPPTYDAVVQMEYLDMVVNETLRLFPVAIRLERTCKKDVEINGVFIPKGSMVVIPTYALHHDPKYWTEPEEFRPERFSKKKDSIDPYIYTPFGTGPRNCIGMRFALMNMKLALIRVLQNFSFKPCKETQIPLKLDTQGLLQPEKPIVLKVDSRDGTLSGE

Chain of Cytochrome P450 3A4 (Homo sapiens) (P08684 whole entry, looked up): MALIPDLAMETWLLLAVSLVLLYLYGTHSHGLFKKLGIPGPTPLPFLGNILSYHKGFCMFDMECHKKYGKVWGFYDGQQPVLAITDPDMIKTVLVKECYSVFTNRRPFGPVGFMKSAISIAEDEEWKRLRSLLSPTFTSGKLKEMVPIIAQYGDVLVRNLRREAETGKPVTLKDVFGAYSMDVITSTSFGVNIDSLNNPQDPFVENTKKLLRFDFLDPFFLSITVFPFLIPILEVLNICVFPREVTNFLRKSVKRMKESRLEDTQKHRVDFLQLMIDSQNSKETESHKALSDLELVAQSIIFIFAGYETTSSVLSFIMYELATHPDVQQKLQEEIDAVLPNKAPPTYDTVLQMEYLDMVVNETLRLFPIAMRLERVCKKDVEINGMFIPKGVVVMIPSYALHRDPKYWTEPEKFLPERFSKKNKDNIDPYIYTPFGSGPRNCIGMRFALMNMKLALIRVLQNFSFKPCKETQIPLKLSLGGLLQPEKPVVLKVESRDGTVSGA

IC50 [1] | IC50 [2] | inhibition ([2]; at 60 µM, stronger effect = higher value) | Compound
1700 nM | 13000 nM |  | O=C(Nc1ccc(-c2ccc3ccccc3c2)cc1)Nc1ccc(-c2ccnc3nc[nH]c23)cc1
> 200 nM |  | 26% | NC(=O)c1ccc(-c2ccc(NC(=O)Nc3ccc(-c4ccnc5nc[nH]c45)cc3)cc2)cc1
